From ChEMBL document CHEMBL1201862, “PubChem BioAssay data set” (2004)
Activity calls are given as the source filed them.

What was measured:
[1] = molecular target: T1, G-protein coupled receptor 55 (Homo sapiens, UniProt Q9Y2T6); assay: selective activators of receptor GPR55 – imaging, U2OS cells, beta-arrestin-GFP redistribution, primary screen (AID 1961); format: functional
[2] = Trypanosoma cruzi growth suppression in host cells – NIH3T3 host cells, beta-gal luminescence, confirmation (AID 2044); format: functional, cell-based;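 further: intracellular parasites grown in NIH/3T3 mouse fibroblasts as host cells; luminescent beta-galactosidase reporter signal from transgenic T. cruzi replicating inside host cells; inhibitors lower the luminescence signal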
[3] = NIH3T3 cell viability loss – ATP luminescence, mouse fibroblasts, counter-screen, dose response (AID 2010); format: functional, cell-based;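 further: cells exposed to compound for about 90 hours before reading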
Cannabinoid receptor 2 [4] = molecular target: T2, Cannabinoid receptor 2 (Homo sapiens, UniProt P34972); assay: SAR analysis of agonists of the Cannabinoid Receptor 2 using an Image-Based Assay - Set 2. [Related pubchem assays (depositor defined):AID1961, AID1965]; format: functional
Cannabinoid receptor 2 [5] = molecular target: T2, Cannabinoid receptor 2; assay: SAR analysis of antagonists of the Cannabinoid Receptor 2 using an Image-Based Assay - Set 2. [Related pubchem assays (depositor defined):AID1961, AID1965]; format: functional
[6] = molecular target: T1, G-protein coupled receptor 55; assay: SAR analysis of selective Agonists of GPR55 using an Image-Based Assay - Set 2. [Related pubchem assays (depositor defined):AID1961, AID1965]; format: functional
Cannabinoid receptor 1 [7] = molecular target: T3, Cannabinoid receptor 1 (Homo sapiens, UniProt P21554); assay: SAR analysis of antagonists of the Cannabinoid Receptor 1 using an Image-Based Assay - Set 3. [Related pubchem assays (depositor defined):AID1961, AID1965]; format: functional
[8] = molecular target: T4, G-protein coupled receptor 35 (Homo sapiens, UniProt Q9HC97); assay: SAR analysis of Antagonists of the GPR35 Receptor using an Image-Based Assay - Set 4. [Related pubchem assays (depositor defined):[…]]; format: functional
[9] = molecular target: T4, G-protein coupled receptor 35; assay: SAR analysis of Agonists of the GPR35 Receptor using an Image-Based Assay - Set 3. [Related pubchem assays (depositor defined):AID1961, AID1965]; format: functional
Cannabinoid receptor 1 [10] = molecular target: T3, Cannabinoid receptor 1; assay: SAR analysis of agonists of the Cannabinoid Receptor 1 using an Image-Based Assay - Set 3. [Related pubchem assays (depositor defined):AID1961, AID1965]; format: functional
[11] = molecular target: T5, Short transient receptor potential channel 4 (Mus musculus, UniProt Q9QUQ5); assay: calcium entry via TRPC4 opening agents – cell-based, HEK293 TRPC4/mu-opioid, Fluo-4 calcium, dose response (AID 434937); format: functional
T5 sequence (Q9QUQ5 whole entry): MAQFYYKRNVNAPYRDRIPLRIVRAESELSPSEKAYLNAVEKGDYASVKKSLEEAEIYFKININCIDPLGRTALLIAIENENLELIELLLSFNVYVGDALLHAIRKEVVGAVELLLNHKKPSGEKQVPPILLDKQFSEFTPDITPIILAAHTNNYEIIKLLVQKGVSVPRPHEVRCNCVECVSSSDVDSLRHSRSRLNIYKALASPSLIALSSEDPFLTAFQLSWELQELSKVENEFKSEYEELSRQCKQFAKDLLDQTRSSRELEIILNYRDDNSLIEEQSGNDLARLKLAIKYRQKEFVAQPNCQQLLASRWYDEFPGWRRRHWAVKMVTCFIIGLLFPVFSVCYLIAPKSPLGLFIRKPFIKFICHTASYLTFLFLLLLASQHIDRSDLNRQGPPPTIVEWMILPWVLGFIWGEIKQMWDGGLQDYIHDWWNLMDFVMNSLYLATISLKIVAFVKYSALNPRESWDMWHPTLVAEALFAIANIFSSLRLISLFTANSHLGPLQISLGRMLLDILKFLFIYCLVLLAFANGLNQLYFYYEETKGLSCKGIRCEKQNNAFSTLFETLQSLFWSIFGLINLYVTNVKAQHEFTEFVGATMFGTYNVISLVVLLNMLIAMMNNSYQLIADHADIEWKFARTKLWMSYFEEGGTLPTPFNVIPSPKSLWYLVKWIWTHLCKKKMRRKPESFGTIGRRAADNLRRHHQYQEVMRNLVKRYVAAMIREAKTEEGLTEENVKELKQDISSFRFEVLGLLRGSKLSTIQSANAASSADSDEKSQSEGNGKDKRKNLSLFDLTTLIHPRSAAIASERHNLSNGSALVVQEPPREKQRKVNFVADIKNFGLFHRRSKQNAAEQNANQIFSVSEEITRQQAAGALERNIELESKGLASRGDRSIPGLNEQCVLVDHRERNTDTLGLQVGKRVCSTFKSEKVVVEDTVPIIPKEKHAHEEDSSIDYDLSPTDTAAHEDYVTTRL

Hexokinase HKDC1 = molecular target: T6, Hexokinase HKDC1 (Homo sapiens, UniProt Q2TB90); assay: inhibition of HKDC1 glucose phosphorylation – biochemical, W721R variant, dose response (AID 504729); format: functional
T6 sequence (Q2TB90 whole entry): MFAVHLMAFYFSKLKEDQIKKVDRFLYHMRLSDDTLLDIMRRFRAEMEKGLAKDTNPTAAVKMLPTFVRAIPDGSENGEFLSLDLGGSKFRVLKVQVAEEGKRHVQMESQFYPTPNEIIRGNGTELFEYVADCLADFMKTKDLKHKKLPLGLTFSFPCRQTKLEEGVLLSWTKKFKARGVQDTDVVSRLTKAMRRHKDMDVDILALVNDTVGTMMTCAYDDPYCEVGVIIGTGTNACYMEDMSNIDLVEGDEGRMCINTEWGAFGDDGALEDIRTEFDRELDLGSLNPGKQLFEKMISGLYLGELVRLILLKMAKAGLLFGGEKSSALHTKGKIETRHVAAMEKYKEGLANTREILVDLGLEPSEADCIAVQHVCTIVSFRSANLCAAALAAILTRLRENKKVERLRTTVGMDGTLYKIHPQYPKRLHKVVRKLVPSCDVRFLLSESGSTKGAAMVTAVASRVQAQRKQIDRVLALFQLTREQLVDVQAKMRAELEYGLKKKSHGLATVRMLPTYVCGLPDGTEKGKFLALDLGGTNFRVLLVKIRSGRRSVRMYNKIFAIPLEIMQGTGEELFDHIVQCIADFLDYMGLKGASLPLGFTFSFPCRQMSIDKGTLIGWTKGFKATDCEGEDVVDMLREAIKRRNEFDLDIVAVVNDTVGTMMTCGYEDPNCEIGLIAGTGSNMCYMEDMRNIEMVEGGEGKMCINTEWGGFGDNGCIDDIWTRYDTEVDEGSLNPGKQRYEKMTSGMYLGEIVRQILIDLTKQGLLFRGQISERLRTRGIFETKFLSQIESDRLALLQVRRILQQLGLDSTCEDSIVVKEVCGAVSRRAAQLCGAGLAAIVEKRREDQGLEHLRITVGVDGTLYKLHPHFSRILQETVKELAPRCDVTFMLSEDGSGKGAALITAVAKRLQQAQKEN

T1 sequence (Q9Y2T6 whole entry): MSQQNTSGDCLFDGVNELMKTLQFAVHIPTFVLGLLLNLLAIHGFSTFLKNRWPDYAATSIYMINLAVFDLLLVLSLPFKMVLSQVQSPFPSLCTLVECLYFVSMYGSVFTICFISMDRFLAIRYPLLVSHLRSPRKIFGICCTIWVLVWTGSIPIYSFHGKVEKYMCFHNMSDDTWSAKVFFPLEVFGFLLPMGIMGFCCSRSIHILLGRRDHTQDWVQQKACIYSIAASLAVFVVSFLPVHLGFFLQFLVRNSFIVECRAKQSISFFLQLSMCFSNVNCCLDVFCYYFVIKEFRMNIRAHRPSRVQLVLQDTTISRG
T4 sequence (Q9HC97 whole entry): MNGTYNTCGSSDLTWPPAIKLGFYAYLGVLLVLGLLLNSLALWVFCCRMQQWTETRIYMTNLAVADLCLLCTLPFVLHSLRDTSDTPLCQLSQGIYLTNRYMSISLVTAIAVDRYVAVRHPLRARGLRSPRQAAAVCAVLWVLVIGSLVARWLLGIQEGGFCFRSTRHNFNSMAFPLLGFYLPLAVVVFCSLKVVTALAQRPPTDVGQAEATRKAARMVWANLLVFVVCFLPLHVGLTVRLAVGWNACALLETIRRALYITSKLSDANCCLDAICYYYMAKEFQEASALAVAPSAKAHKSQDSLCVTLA
T2 sequence (P34972 whole entry): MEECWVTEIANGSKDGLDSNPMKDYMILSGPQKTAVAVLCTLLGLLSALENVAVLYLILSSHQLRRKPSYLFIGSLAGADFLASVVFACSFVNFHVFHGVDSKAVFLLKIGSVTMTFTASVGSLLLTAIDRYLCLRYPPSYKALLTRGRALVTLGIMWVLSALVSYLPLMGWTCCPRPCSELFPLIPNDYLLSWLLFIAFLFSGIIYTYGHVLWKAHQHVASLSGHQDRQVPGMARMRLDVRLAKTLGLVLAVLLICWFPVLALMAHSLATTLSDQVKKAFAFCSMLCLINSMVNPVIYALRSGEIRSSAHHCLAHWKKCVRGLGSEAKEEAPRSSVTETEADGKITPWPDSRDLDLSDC
T3 sequence (P21554 whole entry): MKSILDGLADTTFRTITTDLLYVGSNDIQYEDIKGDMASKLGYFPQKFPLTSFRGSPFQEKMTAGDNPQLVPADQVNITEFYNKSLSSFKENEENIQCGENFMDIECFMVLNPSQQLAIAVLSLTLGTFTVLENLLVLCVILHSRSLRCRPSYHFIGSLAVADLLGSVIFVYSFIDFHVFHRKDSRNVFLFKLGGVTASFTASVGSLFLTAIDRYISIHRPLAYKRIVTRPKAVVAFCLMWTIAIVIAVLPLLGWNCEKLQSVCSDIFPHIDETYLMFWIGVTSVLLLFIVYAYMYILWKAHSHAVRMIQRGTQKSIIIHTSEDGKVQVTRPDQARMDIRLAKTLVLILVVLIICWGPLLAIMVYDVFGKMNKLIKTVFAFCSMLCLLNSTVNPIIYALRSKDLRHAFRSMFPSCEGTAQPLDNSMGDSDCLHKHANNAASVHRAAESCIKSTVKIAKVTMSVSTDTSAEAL

Row | Compound | EC50 [1] | EC50 (Cannabinoid receptor 2 [4]) | IC50 (Cannabinoid receptor 2 [5]) | EC50 [6] | IC50 (Cannabinoid receptor 1 [7]) | IC50 [8] | EC50 [9] | EC50 (Cannabinoid receptor 1 [10]) | other results
1 | Cn1c(SCC(=O)N2c3ccccc3Sc3ccccc32)nc2ccccc21 | 1.29 µM (active) |  |  |  |  |  |  |  | EC50 [2]: 2.77 µM (active); EC50 [3]: > 30 µM (not active)
2 | COc1ccccc1-n1cnc2cc(NCc3ccccc3O)ccc21 | 1.51 µM (active) |  |  |  |  |  |  |  | 
3 | CN(C)S(=O)(=O)c1ccc(Cl)c(C(=O)N2CCN(c3ccc([N+](=O)[O-])cc3)CC2)c1 |  | > 32 µM (inactive) | > 32 µM (inactive) | 6.98 µM (active) | > 32 µM (inactive) | > 32 µM (inactive) | > 32 µM (inactive) | > 32 µM (inactive) | 
4 | O=C(NC1CCCN(Cc2ccc(Cl)cc2)C1)C1CCC1 (stereo not given) |  |  |  |  |  |  |  |  | EC50 [11]: 1.33 µM (active)
5 | COP(=O)(OC)c1ccc(NCc2cc(O)ccc2O)cc1 |  |  |  |  |  |  |  |  | IC50 (Hexokinase HKDC1): 9.51 µM (active)
6 | CC(C)Oc1ccc(S(=O)(=O)N2CCOCC2)cc1NC(=O)c1cc2c(s1)CCCCC2 |  | > 32 µM (inactive) | > 32 µM (inactive) | > 32 µM (inactive) | 27.5 µM (inactive) | > 32 µM (inactive) | > 32 µM (inactive) | > 32 µM (inactive) | 
